Laboratory results as given in patent US8609399B2, “Reducing insoluble deposit formation in ethanol production” (Global Process Technologies, Inc., priority 2007, dated 2013).

Test: Solubility in Presence of Ethanol (temperature at which a precipitate became visible)
Assay type: physicochemical
Settings: 800 ppm Mg2+ and 3600 ppm phytic acid
Description: In the table, the water and ethanol columns indicate the temperature at which a precipitate became visible in a solution containing 800 ppm Mg^2+ and 3600 ppm phytic acid.

magnesium phytate
Temperature (° C.; in 13% ethanol/87% water solution) at which a precipitate became visible (pH 4.35): 40 °C | Temperature (° C.; in 100% water solution) at which a precipitate became visible (pH 4.52): 80 °C | Temperature (° C.; in 13% ethanol/87% water solution) at which a precipitate became visible (pH 4.53): 30 °C | Temperature (° C.; in 13% ethanol/87% water solution) at which a precipitate became visible (pH 4.6): 21 °C | Temperature (° C.; in 100% water solution) at which a precipitate became visible (pH 4.97): 60 °C | Temperature (° C.; in 100% water solution) at which a precipitate became visible (pH 5.36): 40 °C | Temperature (° C.; in 100% water solution) at which a precipitate became visible (pH 5.6): 21 °C
